Assay results taken from ChEMBL document CHEMBL1938343, “Lead optimisation of selective non-zinc binding inhibitors of MMP13. Part 2” (Bioorg Med Chem Lett, 2012).

How the values were obtained:
[1] = Volume of distribution at steady state in rat at 2 mg/kg, iv; type: ADME, organism-based; parameters: dose 2 mg/kg, route intravenous; settings: in vivo, read-out: Vdss
[2] = Apparent permeability across apical to basolateral side in human Caco2 cells at 10 uM; type: ADME, cell-based; settings: Caco-2
[3] = target: T1, A disintegrin and metalloproteinase with thrombospondin motifs 1 (Homo sapiens) (UniProt Q9UHI8); assay: Inhibition of ADAM-TS1 dimethoxyfluorescein-Ser-Pro-Leu-Ala-Gln-Ala- Val-Arg-ser-Ser-Arg-Cys-fluorescein
T1 sequence (whole entry): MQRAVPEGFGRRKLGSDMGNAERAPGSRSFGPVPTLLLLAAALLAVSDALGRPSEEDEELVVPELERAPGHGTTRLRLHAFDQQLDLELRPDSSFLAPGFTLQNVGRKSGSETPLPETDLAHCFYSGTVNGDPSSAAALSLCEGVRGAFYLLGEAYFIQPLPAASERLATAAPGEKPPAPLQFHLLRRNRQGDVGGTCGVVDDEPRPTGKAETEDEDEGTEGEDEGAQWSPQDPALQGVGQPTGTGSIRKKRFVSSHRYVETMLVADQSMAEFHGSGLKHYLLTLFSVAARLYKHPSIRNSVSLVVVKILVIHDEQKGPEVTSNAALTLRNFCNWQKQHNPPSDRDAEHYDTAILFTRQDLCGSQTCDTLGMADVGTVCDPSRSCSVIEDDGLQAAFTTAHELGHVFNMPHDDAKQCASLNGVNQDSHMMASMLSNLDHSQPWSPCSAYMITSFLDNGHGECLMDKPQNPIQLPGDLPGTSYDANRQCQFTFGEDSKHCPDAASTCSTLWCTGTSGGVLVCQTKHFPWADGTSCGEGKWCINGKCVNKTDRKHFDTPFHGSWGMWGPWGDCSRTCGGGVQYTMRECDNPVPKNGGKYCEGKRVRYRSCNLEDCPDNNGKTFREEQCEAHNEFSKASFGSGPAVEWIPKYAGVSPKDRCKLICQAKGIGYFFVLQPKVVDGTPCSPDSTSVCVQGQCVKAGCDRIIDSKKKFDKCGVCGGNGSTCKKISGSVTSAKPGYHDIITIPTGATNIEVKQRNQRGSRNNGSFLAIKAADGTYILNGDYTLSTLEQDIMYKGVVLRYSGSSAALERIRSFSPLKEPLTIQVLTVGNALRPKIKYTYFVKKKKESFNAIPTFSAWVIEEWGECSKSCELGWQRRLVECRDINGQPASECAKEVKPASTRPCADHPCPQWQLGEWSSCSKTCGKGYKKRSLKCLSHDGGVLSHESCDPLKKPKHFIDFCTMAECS

[4] = Fraction unbound in dog; type: ADME, organism-based, Canis lupus familiaris; settings: in vivo
[5] = Half life in dog at 1 mg/kg, iv and 1 mg/kg, po; type: ADME, organism-based, Canis lupus familiaris; settings: in vivo

CN1CCC(NC(=O)c2ccc(Oc3ccc(C#C[C@]4(O)CN5CCC4CC5)cc3)cc2)CC1
Vd [1]: 12.6 L/kg
Papp A→B at 10 µM [2]: 0.3 ×10⁻⁶ cm/s
INH [3]: > 100 µM
fraction unbound [4]: 0.47
half-life [5]: 23 h
